According to patent US9994758B2, “Microbial metabolism of chlorine oxyanions as a control of biogenic hydrogen sulfide production” (The Regents of the University of California, priority 2011, dated 2018):

What was measured:
[1] = test system: marine sediment slurry microcosms; assay: Sulfide inhibition in marine sediment slurry microcosms; type: cell-based; details: addition of chlorate and Dechloromarinus strain NSS, extended incubation for over 250 hours
From the text: In the absence of chlorate and Dechloromarinus strain NSS sulfide is readily produced.

Desulfovibrio vulgaris = assay: Inhibition of sulfidogenesis by sulfate-reducing bacteria (D. vulgaris culture, lactate/sulfate medium); type: cell-based
Protocol: Twelve tubes of basal anaerobic medium containing 15 mM lactate and 15 mM sulfate were inoculated with an active culture of D. vulgaris and incubated for 6 hours at 30° C., until a visible increase in optical density was observed. After six hours, the tubes were further inoculated with A. suillum and 15 mM chlorate prior to incubation overnight at 30° C., as outlined in Table 2.

[O-][Cl+2]([O-])O [chlorate]
sulfide production in marine sediment slurry microcosms (FIG. 4) [1]: sulfide inhibition | sulfide production by D. vulgaris relative to control cells incubated without chlorate (Desulfovibrio vulgaris; 15 mM chlorate alone, 24 hours, 30° C., 15 mM lactate and 15 mM sulfate): 49% | sulfide production by D. vulgaris relative to control cells incubated in the absence of A. suillum and chlorate (Desulfovibrio vulgaris; 15 mM chlorate together with A. suillum, 24-hour incubation, 30° C., 15 mM lactate and 15 mM sulfate): 17% | antimicrobial activity against D. vulgaris (Desulfovibrio vulgaris; chlorate at relatively low concentrations (15 mM)): has antimicrobial activity against D. vulgaris | time course of sulfidogenesis by D. vulgaris (FIG. 6) (Desulfovibrio vulgaris; treated with A. suillum (PS) and chlorate at 48 hours, relative to untreated control): immediate inhibition of sulfide production and removal of sulfide from the medium
